Assay results as given in PMC12459314, “Subcutaneous administration of a novel TRPM8 antagonist reverses cold hypersensitivity while attenuating the drop in core body temperature” (British journal of pharmacology, 2024).
“And” between values parts separate entries of the source, which are not always exact repeats. Equal entries are not always repeated.

Assays:
[1] = Core body temperature and home cage activity by radiotelemetry (s.c., i.p.); format: in vivo, mouse
Procedure: Male and female C57Bl6J (Jackson Laboratories, Bar Harbor, USA, 8–12 weeks of age, 4 M:3F) were anaesthetised with isoflurane (2%–3% in 100% oxygen), and an HDX11 telemetry unit (Data Sciences) was inserted into the peritoneal cavity through a ventral midline incision. Animals were treated with buprenex (0.05 mg·kg^−1, s.c.every 8 h for 72 h) and enrofloxacin (2 mg·kg^−1, s.c.) and single-housed in a reverse light–dark cycle room (lights off 10 AM–10 PM). Mice were handled every day to acclimatise to injections, and experiments began 1 week later. All injections were performed between 1 and 2 PM. […] Body temperature was averaged into 5-min bins, whereas activity data were summed for the 5-min bin.

oxaliplatin-treated mice = assay: Oxaliplatin-induced cold hyperalgesia, cold-plantar test; format: in vivo, mouse; conditions: for reversal of cold hypersensitivity (withdrawal latency) / increase in latency (AUC) compared to baseline: oxaliplatin group; for influence on oxaliplatin-induced cold hypersensitivity: 30 mg·kg−1 alone
Procedure: Male and female C57 BL/6J mice from Taconic Labs were randomized by sex and cage to oxaliplatin or vehicle groups. Mice were weighed and injected intraperitoneally (i.p.) with either oxaliplatin (3 mg·kg^−1), or vehicle (5% dextrose) once per day every day for five consecutive days, followed by five days off, and then by a second round of once per day for five more days. Therefore, mice received a total of 10 injections for a total of 30 mg·kg^−1. The average weight of the females was 18 g while of the males was 20 g. Consequently, the females received an average of 540 and the males 600 μg in total. Behavioural testing was started after the second round of oxaliplatin/vehicle administration. The cold-plantar test was used to assess changes in cold sensitivity. A 3 ml syringe barrel filled with powdered dry ice was used as the stimulus. The dry ice is placed on the glass (borosilicate glass; thickness, 1/8 in. (3.17 mm); temperature, 75°F (24°C), measured with a calibrated IR temperature probe) beneath the hindpaw and the latency to withdraw was determined ([Yilmaz et al., 2017]). The baseline withdrawal latency was determined from the mean of three stimulus applications (at an inter-stimulus interval of ~5 min), while that at each time interval after the administration of a test agent was again the mean of three stimulus applications bracketing the time point in question (i.e., 5 min before, at the time point, and 5 min after). Mice in the two groups defined by oxaliplatin treatment were subsequently randomized to the order of treatment (with the TRPM8 antagonist VBJ103, or vehicle control). VBJ103 and vehicle solutions were administered subcutaneously (s.c.) at doses of 3, 10 and 30 mg·kg^−1. Mice were tested every other day over 7 days so that each mouse received all four injections (vehicle and three doses of VBJ103). In a second cohort of male (n = 8) and female (n = 8) mice, all mice were treated with oxaliplatin as described above, and then randomized to the order of treatment with vehicle, VBJ103 (30 mg·kg^−1) alone, the TRPA1 antagonist, HC-030031 (200 mg·kg^−1) alone, or the combination of VBJ103 (30 mg·kg^−1) and HC-030031 (200 mg·kg^−1). A third cohort of male (n = 7) and female (n = 8) mice was also treated with oxaliplatin as described above. […] All test agents in both follow-up cohorts were again administered in a volume of 5 ml·kg^−1. Mice in both follow-up cohorts were again tested every other day over a period of 6 days. Finally, a fourth cohort of male (n = 4) and female (n = 4) mice was used to confirm that 200 mg·kg^−1 HC-030031 was sufficient to block TRPA1. For this experiment, mice were randomized to the order of treatment with vehicle or HC-030031 ([…]).

## O=C(NC1CCC2(CCCC2)CC1)c1ccc(-c2ccccc2)cc1 [VBJ103, N-(Spiro[4.5]decan-8-yl)-[1,1′-biphenyl]-4-carboxamide]
[1]; 3 mg·kg−1 i.p.
  drop in CBT versus vehicle: not different
[1]; 3 mg·kg−1 s.c.
  time for CBT to return to baseline values: 223 ± 25 min
[1]; 10 mg·kg−1 s.c.
  time for CBT to return to baseline values: 262 ± 48 min
[1]; 30 mg·kg−1 s.c.
  time for CBT to return to baseline values: 380 ± 59 min
[1]; 3, 10 and 30 mg·kg−1 s.c.
  change in home cage activity: without any significant change
[1]; 3, 10 and 30 mg·kg−1 s.c., over 180 min
  fall in CBT: 1–2 °C and 2 °C
[1]; 3, 10 or 30 mg·kg−1 i.p.
  change in home cage activity: no detectable change
  fall in CBT: dose-dependent fall
  time of peak fall in CBT: ≤ 60 min
[1]; 10 and 30 mg·kg−1 i.p.
  drop in CBT versus 3 mg·kg−1 and vehicle: significantly greater
[1]; 100 and 300 mg·kg−1 s.c.
  CBT or home cage activity compared to vehicle: did not alter
oxaliplatin-treated mice; 3 mg·kg−1 s.c., at 2 h
  reversal of cold hypersensitivity (withdrawal latency): significant reversals in hypersensitivity
oxaliplatin-treated mice; 10 mg·kg−1 s.c., at 1 and 2 h
  reversal of cold hypersensitivity (withdrawal latency): significant reversals in hypersensitivity
oxaliplatin-treated mice; 10 mg·kg−1 s.c.
  increase in latency (AUC) compared to baseline: significant
oxaliplatin-treated mice; second cohort, vehicle 0.5% Methocel
  influence on oxaliplatin-induced cold hypersensitivity: significantly attenuated oxaliplatin-induced cold hypersensitivity at all time points tested
oxaliplatin-treated mice; third cohort, vehicle 1:1 DMSO:water
  influence on oxaliplatin-induced cold hypersensitivity: significantly reversed
oxaliplatin-treated mice; 30 mg·kg−1 s.c., at 0.5, 1 and 2 h
  reversal of cold hypersensitivity (withdrawal latency): significant reversals in hypersensitivity
oxaliplatin-treated mice; 30 mg·kg−1 s.c.
  increase in latency (AUC) compared to baseline: significant
oxaliplatin-treated mice; VBJ103 30 mg·kg−1 in combination with GBR12909 20 mg·kg−1, third cohort
  influence on withdrawal latency to noxious cold stimuli: no detectable influence of GBR12909 on the withdrawal latency
oxaliplatin-treated mice; VBJ103 30 mg·kg−1 in combination with HC-030031 200 mg·kg−1, second cohort
  influence on withdrawal latency to noxious cold stimuli: not detectably different from the influence of VBJ103 alone
oxaliplatin-treated mice; mice not treated with oxaliplatin, 3 to 30 mg·kg−1 s.c.
  baseline responses to noxious cold compared to vehicle: not altered
